Data set [1] can be described thus: logP (acidic, pH 2.3, and neutral). In kind it is physicochemical.
Data set [2] deals with Puccinia recondita. Nature of the data set: Puccinia test (wheat) / protective. In kind it is in vivo. The following applies: 240 h, 1000 ppm active ingredient, protective spray, evaluated 10 days after inoculation, 0 % = control, 100 % = no infestation, read-out: Wirkungsgrad. The text has this:
(§1) Zur Herstellung einer zweckmäßigen Wirkstoffzubereitung vermischt man 1 Gewichtsteil Wirkstoff mit den angegebenen Mengen Lösungsmittel und Emulgator und verdünnt das Konzentrat mit Wasser auf die gewünschte Konzentration.
Zur Prüfung auf protektive Wirksamkeit werden junge Pflanzen mit der Wirkstoffzubereitung in der angegebenen Aufwandmenge besprüht. Nach Antrocknen des Spritzbelages werden die Pflanzen mit einer Konidiensuspension von Puccinia recondita besprüht. Die Pflanzen verbleiben 48 Stunden bei 20°C und 100 % relativer Luftfeuchtigkeit in einer Inkubationskabine.
Die Pflanzen werden dann in einem Gewächshaus bei einer Temperatur von ca. 20°C und einer relativen Luftfeuchtigkeit von 80 % aufgestellt, um die Entwicklung von Rostpusteln zu begünstigen.
10 Tage nach der Inokulation erfolgt die Auswertung. Dabei bedeutet 0 % ein Wirkungsgrad, der demjenigen der Kontrolle entspricht, während ein Wirkungsgrad von 100 % bedeutet, daß kein Befall beobachtet wird.

The subject of data set [3] is Erysiphe graminis f. sp. hordei. As to the kind of experiment: Erysiphe test (barley) / protective. In kind it is in vivo. The conditions noted are these: Blumeria graminis, 168 h, 500 ppm active ingredient, evaluated 7 days after inoculation, 0 % = control, 100 % = no infestation, read-out: Wirkungsgrad.
Text: as §1
Zur Prüfung auf protektive Wirksamkeit bespritzt man junge Getreidepflanzen mit der Wirkstoffzubereitung in der angegebenen Aufwandmenge. 1 Tag nach der Behandlung werden die Pflanzen mit Sporen von Erysiphe graminis f. sp. hordei inokuliert. Anschließend werden die Pflanzen in einem Gewächshaus bei 70 % relativer Luftfeuchtigkeit und einer Temperatur von 18°C aufgestellt.
7 Tage nach der Inokulation erfolgt die Auswertung. Dabei bedeutet 0 % ein Wirkungsgrad, der demjenigen der Kontrolle entspricht, während ein Wirkungsgrad von 100 % bedeutet, daß kein Befall beobachtet wird.

Data set [4] deals with Leptosphaeria nodorum. Nature of the data set: Leptosphaeria nodorum test (wheat) / protective. In kind it is in vivo. The conditions noted are these: 500 ppm active ingredient, evaluated 12-14 days after inoculation, 0 % = control, 100 % = no infestation.
Text: as §1
Zur Prüfung auf protektive Wirksamkeit bespritzt man junge Weizenpflanzen mit der Wirkstoffzubereitung in der angegebenen Aufwandmenge. 1 Tag nach der Behandlung werden die Pflanzen mit einer wäßrigen Sporensuspension von Leptosphaeria nodorum inokuliert und verbleiben dann 48h bei 100% rel. Luftfeuchte und 20°C. Anschließend werden die Pflanzen in einem Gewächshaus bei 80 % rel. Luftfeuchtigkeit und einer Temperatur von 22°C aufgestellt.
12-14 Tage nach der Inokulation erfolgt die Auswertung. Dabei bedeutet 0 % ein Wirkungsgrad, der demjenigen der Kontrolle entspricht, während ein Wirkungsgrad von 100 % bedeutet, dass kein Befall beobachtet wird.

Data set [5] deals with Podosphaera leucotricha. As to the kind of experiment: Podosphaera test (apple) / protective. In kind it is in vivo. The following applies: 240 h, 100 ppm active ingredient, evaluated 10 days after inoculation, 0 % = control, 100 % = no infestation, read-out: Wirkungsgrad.
Text: as §1
Zur Prüfung auf protektive Wirksamkeit werden junge Pflanzen mit der Wirkstoffzubereitung in der angegebenen Aufwandmenge besprüht. Nach Antrocknen des Spritzbelages werden die Pflanzen mit einer wäßrigen Sporensuspension des Apfelmehltauerregers Podosphaera leucotricha inokuliert. Die Pflanzen werden dann im Gewächshaus bei ca. 23°C und einer relativen Luftfeuchtigkeit von ca. 70% aufgestellt.
(§2) 10 Tage nach der Inokulation erfolgt die Auswertung. Dabei bedeutet 0% ein Wirkungsgrad, der demjenigen der Kontrolle entspricht, während ein Wirkungsgrad von 100% bedeutet, daß kein Befall beobachtet wird.

Data set [6] concerns Sphaerotheca fuliginea. Nature of the data set: Sphaerotheca test (cucumber) / protective. In kind it is in vivo. The conditions noted are these: Podosphaera fuliginea, 168 h, 100ppm active ingredient, evaluated 7 days after inoculation, 0 % = control, 100 % = no infestation, read-out: Wirkungsgrad.
Text: as §1
Zur Prüfung auf protektive Wirksamkeit werden junge Pflanzen mit der Wirkstoffzubereitung in der angegebenen Aufwandmenge besprüht. Nach Antrocknen des Spritzbelages werden die Pflanzen mit einer wäßrigen Sporensuspension von Sphaerotheca fuliginea inokuliert. Die Pflanzen werden dann bei ca. 23°C und einer relativen Luftfeuchtigkeit von ca. 70% im Gewächshaus aufgestellt.
7 Tage nach der Inokulation erfolgt die Auswertung. Dabei bedeutet 0% ein Wirkungsgrad, der demjenigen der Kontrolle entspricht, während ein Wirkungsgrad von 100% bedeutet, daß kein Befall beobachtet wird.

The subject of data set [7] is Uromyces appendiculatus. Nature of the data set: Uromyces test (bean) / protective. The following applies: 10ppm active ingredient, evaluated 10 days after inoculation, 0 % = control, 100 % = no infestation. In kind it is in vivo.
Text: as §1
Zur Prüfung auf protektive Wirksamkeit werden junge Pflanzen mit der Wirkstoffzubereitung in der angegebenen Aufwandmenge besprüht. Nach Antrocknen des Spritzbelages werden die Pflanzen mit einer wäßrigen Sporensuspension des Bohnenrosterregers Uromyces appendiculatus inokuliert und verbleiben dann 1 Tag bei ca. 20°C und 100% relativer Luftfeuchtigkeit in einer Inkubations-kabine.
Die Pflanzen werden dann im Gewächshaus bei ca. 21°C und einer relativen Luftfeuchtigkeit von ca. 90% aufgestellt.
as §2

The term logP denotes the decadic logarithm of the partition coefficient of the neutral form, usually between octanol and water.

As for `CCN(C)C=Nc1cc(C)c(Oc2cc(F)cc(Br)c2)cc1C` [Nr. 3], the logP in data set [1] (neutral, read-out: logP neutr.) worked out at 5.8. Also, in data set [1] (pH 2.3, acidic, read-out: logP sauer), the logD was 2.29. For the same molecule, the pest or weed control at 1000 ppm in data set [2] is at least 70%. Also, in data set [3], the pest or weed control at 500 ppm was at least 70%. Besides, the Wirkungsgrad in data set [4] and in data set [7] was at least 70% each time. The pest or weed control at 100 ppm in data set [5] and in data set [6] was at least 70% each time.

(Values after EP1969933A1, “Di-halogen phenoxy phenylamidines and their use as fungicides” (Bayer CropScience AG, priority 2007, dated 2008).)
